For one assay, the target named is T1, CBL-B (Homo sapiens, UniProt Q13191).
T1 construct: GST
T1 sequence (Q13191 whole entry): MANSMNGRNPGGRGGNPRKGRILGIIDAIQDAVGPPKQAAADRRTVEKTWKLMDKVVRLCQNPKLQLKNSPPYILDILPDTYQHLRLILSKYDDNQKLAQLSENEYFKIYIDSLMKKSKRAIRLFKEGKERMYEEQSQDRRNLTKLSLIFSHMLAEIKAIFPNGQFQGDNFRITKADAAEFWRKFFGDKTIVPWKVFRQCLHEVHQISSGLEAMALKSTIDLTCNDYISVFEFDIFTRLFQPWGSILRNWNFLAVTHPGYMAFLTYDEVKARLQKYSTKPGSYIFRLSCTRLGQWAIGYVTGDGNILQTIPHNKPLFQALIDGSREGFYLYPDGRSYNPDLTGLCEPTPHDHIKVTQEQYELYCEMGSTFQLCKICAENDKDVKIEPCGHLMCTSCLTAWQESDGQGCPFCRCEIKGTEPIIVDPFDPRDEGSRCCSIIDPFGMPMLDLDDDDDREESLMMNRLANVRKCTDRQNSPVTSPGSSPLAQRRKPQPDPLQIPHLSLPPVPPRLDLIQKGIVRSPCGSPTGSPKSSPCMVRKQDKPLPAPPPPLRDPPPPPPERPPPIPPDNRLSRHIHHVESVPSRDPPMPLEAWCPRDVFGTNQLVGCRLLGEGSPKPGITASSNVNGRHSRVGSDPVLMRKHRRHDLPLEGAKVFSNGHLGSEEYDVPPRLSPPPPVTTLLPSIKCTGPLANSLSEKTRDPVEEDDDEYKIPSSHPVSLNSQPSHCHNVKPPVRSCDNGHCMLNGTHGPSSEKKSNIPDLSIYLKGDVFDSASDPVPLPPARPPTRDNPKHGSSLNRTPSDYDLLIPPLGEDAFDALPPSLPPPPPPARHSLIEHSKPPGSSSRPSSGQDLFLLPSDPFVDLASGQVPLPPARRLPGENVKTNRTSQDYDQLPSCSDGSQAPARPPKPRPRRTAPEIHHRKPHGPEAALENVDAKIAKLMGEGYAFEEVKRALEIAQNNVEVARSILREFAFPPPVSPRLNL
The assay can be described thus: CBL-B TR-FRET IC50 screening (E1/E2 ubiquitination, Biotin-Ubiquitin, Anti GST-Tb donor / Streptavidin-d2 acceptor). To be noted: CBL-B 10 nM final; 11-point titration from 100 uM; binned A-F; read-out: CBL-B TR-FRET activity IC50. In kind it is biochemical.
For `C[C@H]1CCCN(Cc2cc(C(F)(F)F)c3cn(-c4cccc([C@@H](c5nccs5)C5CCC5)c4)c(=O)n3c2)C1` (single isomer, unassigned) [Compound 305], the IC50 is above 10 µM. Same read-out and setting: under `C[C@H]1CCCN(Cc2cc(C(F)(F)F)c3cn(-c4cccc([C@H](c5nccs5)C5CCC5)c4)c(=O)n3c2)C1` (single isomer, unassigned) [Compound 306] stands above 10 µM; under `Cn1cnnc1[C@]1(c2cccc(-n3cc4c(C(F)(F)F)cc(CN5CCc6ncsc6C5)cn4c3=O)c2)C[C@H](C)C1` (single isomer, unassigned) [Compound 308], below 0.1 µM. Still for that read-out and setting: to `Cn1cnnc1[C@]1(c2cccc(-n3cc4c(C(F)(F)F)cc(CN5CCc6ncsc6C5)cn4c3=O)c2)C[C@@H](C)C1` (single isomer, unassigned) [Compound 309] belongs 0.1 to 0.3 µM; to `CO[C@H]1C[C@](c2cccc(-n3cc4c(C(F)(F)F)cc(CN5CCC[C@H](C)C5)cn4c3=O)c2)(c2nncn2C)C1` (single isomer, unassigned) [Compound 319], below 0.1 µM; to `COCCn1cc(C)c([C@@H](c2cccc(-n3cc4c(C(F)(F)F)cc(CN5CCC[C@H](C)C5)cn4c3=O)c2)C2CCC2)n1` (single isomer, unassigned) [Compound 335], above 10 µM. Regarding `COCCn1cc(C)c([C@H](c2cccc(-n3cc4c(C(F)(F)F)cc(CN5CCC[C@H](C)C5)cn4c3=O)c2)C2CCC2)n1` (single isomer, unassigned) [Compound 336], the IC50 is above 10 µM. As to `C[C@H]1CCCN(Cc2cc(C(F)(F)F)c3cn(-c4cccc([C@@H](c5nncn5C)C5CC(F)(F)C5)c4)c(=O)n3c2)C1` (single isomer, unassigned) [Compound 342], the IC50 was above 10 µM. Regarding `C[C@H]1CCCN(Cc2cc(C(F)(F)F)c3cn(-c4cccc([C@H](c5nncn5C)C5CC(F)(F)C5)c4)c(=O)n3c2)C1` (single isomer, unassigned) [Compound 343], the IC50 is 0.1 to 0.3 µM. On the same count and under the same terms, under `C[C@H]1CCCN(Cc2cc(C(F)(F)F)c3cn(-c4cccc([C@@H](c5nncn5C)[C@H]5C[C@@H](CO)C5)c4)c(=O)n3c2)C1` (single isomer, unassigned) [Compound 353] stands above 10 µM; under `C[C@H]1CCCN(Cc2cc(C(F)(F)F)c3cn(-c4cccc([C@H](c5nncn5C)[C@H]5C[C@H](CO)C5)c4)c(=O)n3c2)C1` (single isomer, unassigned) [Compound 354], 0.301 to 1 µM. The same measure, in the same setting: to `C[C@H]1CCCN(Cc2cc(C(F)(F)F)c3cn(-c4cccc([C@@H](c5nncn5C)[C@H]5C[C@H](CO)C5)c4)c(=O)n3c2)C1` (single isomer, unassigned) [Compound 355] belongs above 10 µM.

For the molecule `C[C@H]1CCCN(Cc2cc(C(F)(F)F)c3cn(-c4cccc([C@H](c5nncn5C)[C@H]5C[C@@H](CO)C5)c4)c(=O)n3c2)C1` (single isomer, unassigned) [Compound 356], the IC50 was below 0.1 µM. Same read-out and setting: to `C[C@H]1CCCN(Cc2cc(C(F)(F)F)c3cn(-c4cccc([C@H](c5nncn5C)C5CCOCC5)c4)c(=O)n3c2)C1` (single isomer, unassigned) [Compound 358] belongs above 10 µM; to `C[C@H]1CCCN(Cc2cc(C(F)(F)F)c3cn(-c4cccc([C@@H](c5nncn5C)C5CCOCC5)c4)c(=O)n3c2)C1` (single isomer, unassigned) [Compound 359], above 10 µM.

As to `Cc1cn(CCO)nc1[C@@H](c1cccc(-n2cc3c(C(F)(F)F)cc(CN4CCC[C@H](C)C4)cn3c2=O)c1)C1CCC1` (single isomer, unassigned) [Compound 360], the IC50 was above 10 µM.

`Cc1cn(CCO)nc1[C@H](c1cccc(-n2cc3c(C(F)(F)F)cc(CN4CCC[C@H](C)C4)cn3c2=O)c1)C1CCC1` (single isomer, unassigned) [Compound 361]: the IC50 is above 10 µM.

On to `COC1(C[C@@H](c2cccc(-n3cc4c(C(F)(F)F)cc(CN5CCC[C@H](C)C5)cn4c3=O)c2)c2nncn2C)CC1` (single isomer, unassigned) [Compound 365], for which the IC50 was in the range of 1 to 3 µM. For `COC1(C[C@H](c2cccc(-n3cc4c(C(F)(F)F)cc(CN5CCC[C@H](C)C5)cn4c3=O)c2)c2nncn2C)CC1` (single isomer, unassigned) [Compound 366], the IC50 was above 10 µM. Same read-out and setting: to `C[C@H]1CCCN(Cc2cc(C(F)(F)F)c3cn(-c4cccc([C@H](c5nncn5C)N5CCC5)c4)c(=O)n3c2)C1` (single isomer, unassigned) [Compound 367] belongs 3 to 10 µM; to `C[C@H]1CCCN(Cc2cc(C(F)(F)F)c3cn(-c4cccc([C@@H](c5nncn5C)N5CCC5)c4)c(=O)n3c2)C1` (single isomer, unassigned) [Compound 368], below 0.1 µM. Regarding `Cc1sc(C#N)nc1[C@@H](c1cccc(-n2cc3c(C(F)(F)F)cc(CN4CCC[C@H](C)C4)cn3c2=O)c1)C1CCC1` (single isomer, unassigned) [Compound 369], the IC50 was above 10 µM. Same read-out and setting: under `C[C@H]1CCCN(Cc2cc(C(F)(F)F)c3cn(-c4cccc([C@H](c5nc(C#N)cs5)C5CCC5)c4)c(=O)n3c2)C1` (single isomer, unassigned) [Compound 370] stands above 10 µM; under `Cc1sc(C#N)nc1[C@H](c1cccc(-n2cc3c(C(F)(F)F)cc(CN4CCC[C@H](C)C4)cn3c2=O)c1)C1CCC1` (single isomer, unassigned) [Compound 371], above 10 µM; under `C[C@H]1CCCN(Cc2cc(C(F)(F)F)c3cn(-c4cccc([C@@H](c5nc(C#N)cs5)C5CCC5)c4)c(=O)n3c2)C1` (single isomer, unassigned) [Compound 372], above 10 µM.

The assay is the same for the next values; noted with them: second part of Table 2 (head 'Patent Cmpd No / Updated Activity'); same CBL-B TR-FRET IC50 bins A-F; read-out: Updated Activity.
As for `Cc1cnoc1[C@H](c1cccc(-n2cc3c(C(F)(F)F)cc(CN4CCC[C@H](C)C4)cn3c2=O)c1)C1CCC1` (single isomer, unassigned) [Compound 383], the IC50 is above 10 µM. Same read-out and setting: to `Cc1cnoc1[C@@H](c1cccc(-n2cc3c(C(F)(F)F)cc(CN4CCC[C@H](C)C4)cn3c2=O)c1)C1CCC1` (single isomer, unassigned) [Compound 384] belongs above 10 µM; to `COCc1nc([C@@H](c2cccc(-n3cc4c(C(F)(F)F)cc(CN5CCC[C@H](C)C5)cn4c3=O)c2)C2CCC2)c(C)s1` (single isomer, unassigned) [Compound 385], above 10 µM; to `COCc1nc([C@H](c2cccc(-n3cc4c(C(F)(F)F)cc(CN5CCC[C@H](C)C5)cn4c3=O)c2)C2CCC2)c(C)s1` (single isomer, unassigned) [Compound 386], above 10 µM. `COC1CN([C@H](c2cccc(-n3cc4c(C(F)(F)F)cc(CN5CCC[C@H](C)C5)cn4c3=O)c2)c2nncn2C)C1` (single isomer, unassigned) [Compound 387]: the IC50 is above 10 µM. Turning to `COC1CN([C@@H](c2cccc(-n3cc4c(C(F)(F)F)cc(CN5CCC[C@H](C)C5)cn4c3=O)c2)c2nncn2C)C1` (single isomer, unassigned) [Compound 388], the IC50 is above 10 µM. Still for that read-out and setting: under `COCc1csc([C@@H](c2cccc(-n3cc4c(C(F)(F)F)cc(CN5CCC[C@H](C)C5)cn4c3=O)c2)C2CCC2)n1` (single isomer, unassigned) [Compound 389] stands above 10 µM; under `COCc1csc([C@H](c2cccc(-n3cc4c(C(F)(F)F)cc(CN5CCC[C@H](C)C5)cn4c3=O)c2)C2CCC2)n1` (single isomer, unassigned) [Compound 390], above 10 µM; under `Cc1sc(CO)nc1[C@@H](c1cccc(-n2cc3c(C(F)(F)F)cc(CN4CCC[C@H](C)C4)cn3c2=O)c1)C1CCC1` (single isomer, unassigned) [Compound 391], above 10 µM. On to `Cc1sc(CO)nc1[C@H](c1cccc(-n2cc3c(C(F)(F)F)cc(CN4CCC[C@H](C)C4)cn3c2=O)c1)C1CCC1` (single isomer, unassigned) [Compound 392], for which the IC50 is above 10 µM. On the same count and under the same terms, under `COC(=O)N1CCC[C@H](c2cc(C(F)(F)F)c3cn(-c4cccc([C@H](c5nncn5C)C5CCC5)c4)c(=O)n3c2)C1` (single isomer, unassigned) [Compound 393] stands below 0.1 µM. The same measure, in the same setting: to `COC(=O)N1CCC[C@@H](c2cc(C(F)(F)F)c3cn(-c4cccc([C@H](c5nncn5C)C5CCC5)c4)c(=O)n3c2)C1` (single isomer, unassigned) [Compound 394] belongs 0.1 to 0.3 µM; to `CC(=O)N1CCC[C@H](c2cc(C(F)(F)F)c3cn(-c4cccc([C@H](c5nncn5C)C5CCC5)c4)c(=O)n3c2)C1` (single isomer, unassigned) [Compound 396], 0.1 to 0.3 µM. Same read-out and setting: under `CC(=O)N1CCC[C@@H](c2cc(C(F)(F)F)c3cn(-c4cccc([C@H](c5nncn5C)C5CCC5)c4)c(=O)n3c2)C1` (single isomer, unassigned) [Compound 397] stands 0.1 to 0.3 µM; under `COCC[C@H](c1cccc(-n2cc3c(C(F)(F)F)cc(CN4CCC[C@H](C)C4)cn3c2=O)c1)c1nncn1C` (single isomer, unassigned) [Compound 399], below 0.1 µM. Regarding `COCC[C@@H](c1cccc(-n2cc3c(C(F)(F)F)cc(CN4CCC[C@H](C)C4)cn3c2=O)c1)c1nncn1C` (single isomer, unassigned) [Compound 400], the IC50 is above 10 µM. On the same count and under the same terms, to `C[C@H]1CCCN(Cc2cc(C(F)(F)F)c3cn(-c4cccc([C@@H](CC5(C#N)CC5)c5nncn5C)c4)c(=O)n3c2)C1` (single isomer, unassigned) [Compound 405] belongs above 10 µM; to `C[C@H]1CCCN(Cc2cc(C(F)(F)F)c3cn(-c4cccc([C@H](c5nncn5C)N5CC(O)C5)c4)c(=O)n3c2)C1` (single isomer, unassigned) [Compound 406], 0.1 to 0.3 µM. In the case of `C[C@H]1CCCN(Cc2cc(C(F)(F)F)c3cn(-c4cccc([C@@H](c5nncn5C)N5CC(O)C5)c4)c(=O)n3c2)C1` (single isomer, unassigned) [Compound 407], the IC50 was above 10 µM.

`COC(=O)N1CC[C@H](c2cc(C(F)(F)F)c3cn(-c4cccc([C@H](c5nncn5C)C5CCC5)c4)c(=O)n3c2)C1` (single isomer, unassigned) [Compound 408]: the IC50 is below 0.1 µM.

The values are drawn from patent publication US20240228482A1, “COMPOUNDS, COMPOSITIONS AND METHODS OF TREATING CANCER” (HOTSPOT THERAPEUTICS, INC., priority 2021, published 2024).
